PubChem BioAssay AID248 (DTP/NCI, 2004)
Values joined by “and” are separate entries in the source; they are usually repeats but may differ in a detail not shown here. Equal entries are not always repeated. Toxic doses and inconclusive results are not listed. Cut-off read from the data, not from the text of the source: active = T/C of 150% or more; inactive = T/C below 125%.

System: L1210 leukemia ip in BDF1 mice, survival T/C
Test: NCI In Vivo Anticancer Drug Screen. Data for tumor model L1210 Leukemia (intraperitoneal) in B6D2F1 (BDF1) mice
Conditions: endpoint: mean survival time, higher = longer survival
How it was run: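 Survival endpoint. Drug-treated group vs vehicle group, expressed as T divided by C. Tumor passaged by transplantation.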

[1] = dose: 100.0 mg/kg/injection, schedule: Q04DX003 (ip), vehicle: saline with Tween-80
[2] = dose: 200.0 mg/kg/injection, schedule: Q04DX003 (ip), vehicle: saline with Tween-80
[3] = dose: 400.0 mg/kg/injection, schedule: Q04DX003 (ip), vehicle: saline with Tween-80
[4] = dose: 25.0 mg/kg/injection, schedule: Q01DX009 (ip), vehicle: saline with Tween-80
[5] = dose: 50.0 mg/kg/injection, schedule: Q01DX009 (ip), vehicle: saline with Tween-80
[6] = dose: 50.0 mg/kg/injection, schedule: Q04DX003 (ip), vehicle: saline with Tween-80
[7] = dose: 100.0 mg/kg/injection, schedule: Q01DX009 (ip), vehicle: Klucel (hydroxypropylcellulose) (HPC)
[8] = dose: 100.0 mg/kg/injection, schedule: Q04DX003 (ip), vehicle: Klucel (hydroxypropylcellulose) (HPC)
[9] = dose: 200.0 mg/kg/injection, schedule: Q01DX009 (ip), vehicle: Klucel (hydroxypropylcellulose) (HPC)
[10] = dose: 200.0 mg/kg/injection, schedule: Q04DX003 (ip), vehicle: Klucel (hydroxypropylcellulose) (HPC)
[11] = dose: 400.0 mg/kg/injection, schedule: Q04DX003 (ip), vehicle: Klucel (hydroxypropylcellulose) (HPC)
[12] = dose: 100.0 mg/kg/injection, schedule: Q01DX001 (ip), vehicle: saline
[13] = dose: 200.0 mg/kg/injection, schedule: Q01DX001 (ip), vehicle: saline
[14] = dose: 400.0 mg/kg/injection, schedule: Q01DX001 (ip), vehicle: saline
[15] = dose: 25.0 mg/kg/injection, schedule: Q01DX009 (ip), vehicle: saline
[16] = dose: 50.0 mg/kg/injection, schedule: Q01DX009 (ip), vehicle: saline

Measured: T/C

CC1CCCC(CN=Cc2cc(Cl)ccc2O)[N-]1.CC1CCCC(CN=Cc2cc(Cl)ccc2O)[N-]1.[Ni+2] (centres undefined)
inactive: [1] 96 % of control | [2] 90 % of control | [3] 91 % of control

O=S1(=O)C(c2ccccc2)=C1c1ccccc1
inactive: dose: 12.5 mg/kg/injection, schedule: Q01DX001 (ip), vehicle: other 100 % of control | dose: 12.5 mg/kg/injection, schedule: Q01DX009 (ip), vehicle: other 95 % of control | dose: 25.0 mg/kg/injection, schedule: Q01DX001 (ip), vehicle: other 94 % of control and 100 % of control | dose: 25.0 mg/kg/injection, schedule: Q01DX009 (ip), vehicle: other 101 % of control | dose: 50.0 mg/kg/injection, schedule: Q01DX001 (ip), vehicle: other 97 % of control and 101 % of control | dose: 50.0 mg/kg/injection, schedule: Q01DX009 (ip), vehicle: other 86 % of control

CCOC(=O)/C(Cc1n[n+]([O-])ccc1Cl)=N\N
inactive: dose: 43.75 mg/kg/injection, schedule: Q04DX002 (ip), vehicle: Klucel (hydroxypropylcellulose) (HPC) 116 % of control | dose: 87.5 mg/kg/injection, schedule: Q04DX002 (ip), vehicle: Klucel (hydroxypropylcellulose) (HPC) 101 % of control | dose: 175.0 mg/kg/injection, schedule: Q04DX002 (ip), vehicle: Klucel (hydroxypropylcellulose) (HPC) 96 % of control

CN(C)[S+](C)(=O)/C=C(/[O-])c1ccccc1 (centres undefined)
inactive: dose: 62.5 mg/kg/injection, schedule: Q01DX001 (ip), vehicle: saline 106 % of control | dose: 125.0 mg/kg/injection, schedule: Q01DX001 (ip), vehicle: saline 102 % of control | dose: 250.0 mg/kg/injection, schedule: Q01DX001 (ip), vehicle: saline 102 % of control

O=c1c2[nH]c3cccc(Cl)c3c2cnn1-c1ccc(F)cc1
inactive: dose: 100.0 mg/kg/injection, schedule: Q01DX001 (ip), vehicle: Klucel (hydroxypropylcellulose) (HPC) 96 % of control | dose: 200.0 mg/kg/injection, schedule: Q01DX001 (ip), vehicle: Klucel (hydroxypropylcellulose) (HPC) 104 % of control | dose: 400.0 mg/kg/injection, schedule: Q01DX001 (ip), vehicle: Klucel (hydroxypropylcellulose) (HPC) 104 % of control

CC1CC(C)(C)N=C(C2(c3ccccc3)CC2)O1 (centres undefined)
inactive: [4] 102 % of control | [5] 98 % of control | [6] 88 % of control | dose: 100.0 mg/kg/injection, schedule: Q01DX009 (ip), vehicle: saline with Tween-80 100 % of control | [1] 95 % of control | dose: 200.0 mg/kg/injection, schedule: Q01DX009 (ip), vehicle: saline with Tween-80 98 % of control

Cc1cc(C)cc(OC(=O)Nc2ccccc2Cl)c1
inactive: [7] 88 % of control | [8] 98 % of control | [9] 92 % of control | [10] 98 % of control | dose: 400.0 mg/kg/injection, schedule: Q01DX009 (ip), vehicle: Klucel (hydroxypropylcellulose) (HPC) 86 % of control | [11] 98 % of control

CN(C)c1ccc(C(=O)c2ccc(N(C)C)cc2)cc1
inactive: [1] 93 % of control | [2] 88 % of control | [3] 97 % of control

CC1(CCl)OCCO1
inactive: [7] 91 % of control | [8] 100 % of control | [9] 96 % of control | [10] 101 % of control | [11] 98 % of control

NNc1ncccc1[N+](=O)[O-]
inactive: dose: 50.0 mg/kg/injection, schedule: Q01DX001 (ip), vehicle: saline 102 % of control | [12] 108 % of control | [13] 96 % of control

c1ccc(C2=NNc3cccc[n+]3C2)cc1
inactive: dose: 75.0 mg/kg/injection, schedule: Q01DX001 (ip), vehicle: other 101 % of control

O=C(O)CCC(=O)c1ccc2c(c1)CCCC2
inactive: dose: 3.13 mg/kg/injection, schedule: Q01DX009 (ip), vehicle: saline with Tween-80 95 % of control | dose: 6.25 mg/kg/injection, schedule: Q01DX009 (ip), vehicle: saline with Tween-80 92 % of control | dose: 12.5 mg/kg/injection, schedule: Q01DX009 (ip), vehicle: saline with Tween-80 93 % of control

CC1=CCC=C(CNc2ncnc3nc[nH]c23)C1
inactive: [4] 95 % of control | dose: 25.0 mg/kg/injection, schedule: Q04DX003 (ip), vehicle: saline with Tween-80 94 % of control | [5] 93 % of control | [6] 97 % of control | [1] 101 % of control

C=CCNC(=S)Nc1cccc(C(F)(F)F)c1
inactive: dose: 50.0 mg/kg/injection, schedule: Q01DX001 (sc), vehicle: carboxymethylcellulose (CMC) 104 % of control | dose: 100.0 mg/kg/injection, schedule: Q01DX001 (sc), vehicle: carboxymethylcellulose (CMC) 101 % of control | dose: 200.0 mg/kg/injection, schedule: Q01DX001 (sc), vehicle: carboxymethylcellulose (CMC) 104 % of control | dose: 400.0 mg/kg/injection, schedule: Q01DX001 (sc), vehicle: carboxymethylcellulose (CMC) 114 % of control

O=C1NC(=O)C(c2ccccc2)O1 (centres undefined)
inactive: dose: 100.0 mg/kg/injection, schedule: Q01DX001 (ip), vehicle: other 92 % of control | dose: 200.0 mg/kg/injection, schedule: Q01DX001 (ip), vehicle: other 103 % of control | dose: 400.0 mg/kg/injection, schedule: Q01DX001 (ip), vehicle: other 97 % of control

O=S(=O)(Nc1c(Cl)c(Cl)c(Cl)c(Cl)c1NS(=O)(=O)c1ccccc1)c1ccccc1
inactive: [7] 101 % of control | [8] 94 % of control | [9] 92 % of control | [10] 100 % of control | [11] 95 % of control

O=C(Nc1cccc(Cl)c1)OCCN(CCOC(=O)Nc1cccc(Cl)c1)Cc1ccccc1
inactive: [12] 106 % of control | [13] 95 % of control | [14] 97 % of control

CN(C)c1ccc2c(c1)Cc1cc(N=C3C=CC(=O)O3)ccc1-2
inactive: [15] 100 % of control | dose: 25.0 mg/kg/injection, schedule: Q04DX003 (ip), vehicle: acetone 95 % of control | [16] 97 % of control | dose: 50.0 mg/kg/injection, schedule: Q04DX003 (ip), vehicle: acetone 92 % of control | [12] 89 % of control | dose: 100.0 mg/kg/injection, schedule: Q01DX009 (ip), vehicle: saline 94 % of control | dose: 100.0 mg/kg/injection, schedule: Q04DX003 (ip), vehicle: acetone 88 % of control

C[N+](C)(C)c1ccc(/C=C2/CCCCC2=O)cc1
inactive: dose: 12.5 mg/kg/injection, schedule: Q01DX009 (ip), vehicle: saline 117 % of control | dose: 12.5 mg/kg/injection, schedule: Q04DX003 (ip), vehicle: saline 97 % of control | [15] 100 % of control | dose: 25.0 mg/kg/injection, schedule: Q04DX003 (ip), vehicle: saline 92 % of control | [16] 103 % of control | dose: 50.0 mg/kg/injection, schedule: Q04DX003 (ip), vehicle: saline 106 % of control

O=P(Oc1ccccc1)(Oc1ccccc1)Oc1ccccc1Cl
inactive: [12] 96 % of control | [13] 102 % of control | [14] 97 % of control

CCCCCCCCCC(CCCCCCCCC)NCC(C)OC(=O)c1ccc([N+](=O)[O-])cc1 (centres undefined)
inactive: dose: 75.0 mg/kg/injection, schedule: Q01DX001 (ip), vehicle: acetone 95 % of control | dose: 150.0 mg/kg/injection, schedule: Q01DX001 (ip), vehicle: acetone 95 % of control | dose: 300.0 mg/kg/injection, schedule: Q01DX001 (ip), vehicle: acetone 94 % of control
